For one data set, the system named is CCD-18Co cells. The data set is described as follows: MTT assay, metabolic activity of CCD-18Co fibroblasts. It is filed as cell-based, human. The conditions noted are these: 48 h. The procedure:
(§1) The effect of acridine-benzohydrazides (3a–3d) on the metabolic activity of the lung adenocarcinoma cell line (A549) and the normal colon fibroblast cell line (CCD-18Co) was evaluated using a 3-(4,5-dimethylthiazol-2-yl)-2,5-diphenyltertrazolium bromide (MTT) cell assay. This assay is based on the metabolization of yellow MTT to purple formazan crystal by mitochondrial dehydrogenases, and therefore only metabolic active cells are capable of that reaction. The CCD-18Co cell line was used as a control to check for derivatives selectivity. The doxorubicin belongs to a group of anthracyclines, which represent the chemotherapeutic regiments for the treatment of NSCLC (non-small cell lung carcinoma) even today, and acts as antineoplastic mainly by interaction with the DNA topoisomerase II and by creating DNA single- and double-strand breaks. Previous studies described detailed cytotoxic effects of doxorubicin in the human lung adenocarcinoma A549 cell line. Doxorubicin resembles our compounds in its biological action; therefore, it was employed as a positive control.
(§2) Human lung carcinoma cell line A549 and CCD-18Co colon fibroblasts were purchased from the American Type Culture Collection (ATCC, Rockville, MD, USA). The A549 cells were cultured in a complete RPMI-1640 medium (Sigma-Aldrich, St. Louis, MO, USA) and CCD-18Co cells were cultured in a minimum essential medium (MEM) (PAN-Biotech GmbH, Aidenbach, Germany) at 37 °C, 95% humidity and 5% CO2. The media were supplemented with 10% fetal bovine serum (FBS, Biosera, Nuaille, France) and antibiotics (1% Antibiotic-Antimycotic 100 × and 50 × 10^−3 g L^−1 gentamicin, Biosera). Prior to the selected treatments, cells were seeded on 6- and/or 96-well plates (TPP, Trasadingen, Switzerland) and left to settle for 24 h. The acridine compounds solutions (at concentrations ranging from 5–75 µM) were then added to cells for 24 or 48 h, and analysis was subsequently performed.
(§3) MTT assays were performed in order to evaluate changes in the metabolic activity of cells that had occurred as a consequence of treatment with the acridine compounds. A549 cells (15 × 10^3 cells/cm^2) and CCD-18Co (15.625 × 10^3 cells/cm^2) were seeded in 96-well microplates. The A549 cells were treated for 24 and 48 h, and the CCD-18Co cells were treated for 48 h with different concentrations (5, 25, 50 and 75 µM) of the derivatives. After the treatment, the MTT (3-(4,5-dimethylthiazol-2-yl)-2,5-diphenyltertrazolium bromide) solution in PBS (5 mg mL^−1) was added to each well. The reaction was stopped after 4 h incubation, and the formazan was dissolved by the addition of SDS at a final concentration of 3.3%. The absorbance of formazan (λ = 584 nm) was measured using a BMG FLUOstar Optima spectrometer (BMG Labtech GmbH, Offenburg, Germany). The results were evaluated as percentages of the absorbance of the untreated control. Results are presented as the average percentage of cells from three independent experiments. IC50 values for the derivatives were extrapolated from a sigmoidal fit (dose-response curve) to the metabolic activity data using OriginPro 8.5.0 SR1 (OriginLab Corp., Northampton, MA, USA).
(Tetrazolium assays rely on reduction of a dye to a coloured formazan, in cell work by metabolically active cells.)

In another data set the test system is A549 cells. The data set is described as follows: MTT assay, metabolic activity of A549 cells. In kind it is cell-based, human. Conditions: for IC50: Homo sapiens. The procedure:
as §1, §2, §3

As for `O=C(N/N=C/c1ccc(F)cc1)c1cccc2cc3ccccc3nc12` [7b, N′-[(E)-4-Fluorophenylmethylidene]acridine-4-carbohydrazide], the melting point fell in the range of 255 to 256 °C.
On to `O=C(N/N=C/c1ccc(Cl)cc1)c1cccc2cc3ccccc3nc12` [7c, N′-[(E)-4-Chlorophenylmethylidene]acridine-4-carbohydrazide], for which the melting point was 243 to 244 °C.
Compound `O=C(N/N=C/c1ccc(Br)cc1)c1cccc2cc3ccccc3nc12` [7d, N′-[(E)-4-Bromophenylmethylidene]acridine-4-carbohydrazide] yielded a melting point of 240 to 241 °C.
For the compound `COc1cccc2c1C(=O)c1c(O)c3c(c(O)c1C2=O)C[C@@](O)(C(=O)CO)C[C@@H]3O[C@H]1C[C@H](N)[C@H](O)[C@H](C)O1` [DOXO, doxorubicin, reference compound], in the data set with CCD-18Co cells (5–75 μM tested), the “effect on metabolic activity of CCD-18Co cells” value is “significantly decreased”. Also, the IC50 is 5 µM in the data set on CCD-18Co cells (Homo sapiens, CCD-18Co); 56 µM in the data set on A549 cells (A549, 24 h); 5 µM with A549 cells (A549, 48 h). For the same compound, the “effect on metabolic activity of A549 cells” value in the data set with A549 cells (24 h and 48 h, 5–75 μM tested) is “significantly decreased”.

As usually defined, the melting point is the temperature of the solid-liquid transition. What is called IC50 is the concentration needed to halve the response being measured. A low value points to higher potency.

The values above are taken from paper PMC9100673, “Acridine Based N-Acylhydrazone Derivatives as Potential Anticancer Agents: Synthesis, Characterization and ctDNA/HSA Spectroscopic Binding Properties” (Molecules, 2022).
